Reference: US20090012179A1, “Use of Tyrphostins to Stimulate Neurite Outgrowth” (priority 2004, published 2009)
“Also recorded” adds a separate entry of the source.

Assays:
ERK [1] = experiment: ERK activation in NS20Y neuroblastoma cells, immunoblotting for dually phosphorylated ERK; assay type: cell-based, mouse; conditions: for Effect of inhibitor pretreatment on A9-stimulated ERK activation: A9 1 μM, 45 minutes; for ERK activation: dually phosphorylated ERK by immunoblotting
PKCζ = biological target: T1, PKCζ (Homo sapiens, UniProt Q05513); conditions: read-out: IC50 for activation of PKCζ; cited from earlier work
T1 sequence (Q05513 1-592): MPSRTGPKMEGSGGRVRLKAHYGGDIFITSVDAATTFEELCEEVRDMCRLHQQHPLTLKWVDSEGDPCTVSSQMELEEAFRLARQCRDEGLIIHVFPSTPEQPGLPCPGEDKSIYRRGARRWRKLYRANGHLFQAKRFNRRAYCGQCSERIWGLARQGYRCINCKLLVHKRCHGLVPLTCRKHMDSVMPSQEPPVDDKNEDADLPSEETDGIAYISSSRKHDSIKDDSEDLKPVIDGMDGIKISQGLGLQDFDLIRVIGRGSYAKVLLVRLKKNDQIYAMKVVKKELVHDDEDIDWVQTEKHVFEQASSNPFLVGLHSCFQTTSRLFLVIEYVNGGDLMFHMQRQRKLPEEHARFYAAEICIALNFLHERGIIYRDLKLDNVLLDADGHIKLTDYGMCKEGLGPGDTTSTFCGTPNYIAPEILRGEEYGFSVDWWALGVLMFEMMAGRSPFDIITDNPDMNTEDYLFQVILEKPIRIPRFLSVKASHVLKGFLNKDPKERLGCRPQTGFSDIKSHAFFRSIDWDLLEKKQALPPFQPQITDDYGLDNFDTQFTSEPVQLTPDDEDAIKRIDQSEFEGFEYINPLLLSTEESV

SH-SY5Y cells = experiment: Neurite length in NGF-treated SH-SY5Y neuroblastoma cells; assay type: cell-based, human
Description: Analysis of neurite length in SH-SY5Y neuroblastoma cells: SH-SY5Y neuroblastoma cells develop axonal-like processes on treatment with NGF. For analysis of process length, cells (20 fields/well) are randomly photographed at 96 and 168 hours. Neurite lengths are measured on photographic prints using a Houston Instrument HI-PAD digitizing tablet connected to a computer with appropriate software (Bioquant IV); only processes more than twice the cell body length are measured. Data from identically treated wells are combined. […] Histograms are compared using a Mann-Whitney U test (α=0.05), which makes no assumptions about the shape of the distribution.
As disclosed herein, high and sustained ERK activation induces neurite growth in […] neuroblastoma cells and protects neuronal cells from neurotoxins. To test this, SH-SY5Y human neuroblastoma cells were used, which can be induced into neuron-like phenotype by NGF treatment. This is an established method for measuring neurite growth-promoting activity in vitro in Dr. Gold's lab (Gold et al., Neurosignals. 13:122-129, 2004; Gold et al., Exp. Neurol. 147:269-278, 1997). […] Representative micrographs at 168 hours for vehicle (control), NGF (10 ng/ml), and NGF (10 ng/ml) plus A9 (100 nM) are shown in FIG. 5B.

ERK [2] = conditions: NS20Y cells; previous study; cited from earlier work

Compound: N#CC(C#N)=Cc1cc(O)c(O)c(O)c1 [AG82]
- Effect of inhibitor pretreatment on A9-stimulated ERK activation (ERK [1]): did not prevent the effect of A9
- ERK activation (ERK [1]): did not stimulate ERK

Compound: N#CC(=Cc1ccc2[nH]ccc2c1)C(N)=C(C#N)C#N [AG370]
- ERK activation (ERK [1]): moderate stimulation of ERK; also recorded: little or no effect

Compound: CC(C)(C)c1cc(/C=C(\C#N)C(N)=S)cc(C(C)(C)C)c1O [AG879]
- ERK stimulation (ERK [1]; at 0.1 μM): moderate stimulation of ERK
- ERK stimulation (ERK [1]; at 1 μM): showed no effect
- ERK activation (ERK [1]): little or no effect

Compound: Cc1cc2ncc(-c3ccccc3)nc2cc1C [AG1295]
- ERK activation (ERK [1]): did not stimulate ERK; also recorded: little or no effect

Compound: CN(C)CCCn1cc(C2=C(c3c[nH]c4ccccc34)C(=O)NC2=O)c2ccccc21 [BisI, bisindolylmaleimide I]
- Effect of inhibitor pretreatment on A9-stimulated ERK activation (ERK [1]): failed to prevent A9-stimulated ERK activity
- IC50 (PKCζ): 5.8 µM

Compound: COc1cccc(-c2cc(=O)c3ccccc3o2)c1N [PD98059, reference compound]
- Effect of inhibitor pretreatment on A9-stimulated ERK activation (ERK [1]): prevented A9 from stimulating ERK activation
- Effect of MEK inhibitor on A9-induced neurite outgrowth (SH-SY5Y cells; SH-SY5Y cells): did inhibit A9-induced neurite outgrowth

Compound: CC(C)(C)n1nc(-c2ccc(Cl)cc2)c2c(N)ncnc21 [PP2]
- Effect of inhibitor pretreatment on A9-stimulated ERK activation (ERK [1]): failed to prevent A9-stimulated ERK activity
- Block of ERK activation induced by quinpirole (ERK [2]): block ERK activation induced by quinpirole

Compound: CN[C@@H]1C[C@H]2O[C@@](C)([C@@H]1OC)n1c3ccccc3c3c4c(c5c6ccccc6n2c5c31)C(=O)NC4 [stauosporine]
- Effect of inhibitor pretreatment on A9-stimulated ERK activation (ERK [1]): prevented A9 from stimulating ERK activation

Compound: NGF: nerve growth factor
- Development of axonal-like processes (SH-SY5Y cells; SH-SY5Y, NGF 10 ng/ml alone): developed long axonal-like processes
